Test results published in patent US20230321008A1, “INHIBITORS OF ACID SPHINGOMYELINASE FOR PREVENTING AND TREATING THE COVID-19 DISEASE” (priority 2020, published 2023).
Entries after “also recorded” stand apart in the source; their conditions may differ.

Columns and labels:
SARS-CoV-2 [1] = conditions: cited from earlier work
[2] = molecular target: T1, acid sphingomyelinase (ASM) (Homo sapiens, UniProt P17405); conditions: cited from earlier work
T1 sequence (P17405 47-631): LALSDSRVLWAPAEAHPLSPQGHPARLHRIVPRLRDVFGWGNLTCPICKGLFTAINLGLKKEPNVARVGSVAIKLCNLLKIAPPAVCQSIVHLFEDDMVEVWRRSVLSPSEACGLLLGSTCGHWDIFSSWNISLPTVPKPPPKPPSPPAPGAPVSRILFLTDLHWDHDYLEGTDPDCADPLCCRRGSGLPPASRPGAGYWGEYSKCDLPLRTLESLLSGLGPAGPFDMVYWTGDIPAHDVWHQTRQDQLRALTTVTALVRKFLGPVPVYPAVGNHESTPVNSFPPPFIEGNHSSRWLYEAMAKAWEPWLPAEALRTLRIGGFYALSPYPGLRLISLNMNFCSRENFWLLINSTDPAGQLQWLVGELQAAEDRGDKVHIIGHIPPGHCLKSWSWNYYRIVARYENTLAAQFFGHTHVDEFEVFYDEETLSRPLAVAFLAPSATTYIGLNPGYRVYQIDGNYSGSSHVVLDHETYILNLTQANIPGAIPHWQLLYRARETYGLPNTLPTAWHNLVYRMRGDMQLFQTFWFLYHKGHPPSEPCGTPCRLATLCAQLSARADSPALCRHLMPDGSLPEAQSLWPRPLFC

SARS-CoV-2 [3] = conditions: oral use in healthy volunteers; cited from earlier work
[4] = system: ceramide-enriched membrane domains; conditions: in vitro; cited from earlier work
severe COVID-19 [5] = assay: Example 2: multicenter observational retrospective cohort study, FIASMA medication use at baseline and intubation or death in patients hospitalized for severe COVID-19; assay type: in vivo, human; conditions: vs no FIASMA medication
Source text: We included all adults aged 18 years or over who have been hospitalized in these medical centers for severe COVID-19. COVID-19 was ascertained by a positive reverse-transcriptase-polymerase-chain-reaction (RT-PCR) test from analysis of nasopharyngeal or oropharyngeal swab specimens. Severe COVID-19 at admission was defined as having at least one of the following criteria: respiratory rate > 24 breaths/min or < 12 breaths/min, resting peripheral capillary oxygen saturation in ambient air < 90%, temperature > 40° C., systolic blood pressure < 100 mm Hg or high lactate levels. AP-HP clinical Data Warehouse initiatives ensure patient information and informed consent regarding the different approved studies through a transparency portal in accordance with European Regulation on data protection and authorization n°1980120 from National Commission for Information Technology and Civil Liberties (CNIL).
We used data from the AP-HP Health Data Warehouse (‘Entrepôt de Données de Santé (EDS)’). This warehouse contains all available clinical data on all inpatient visits for COVID-19 to any Greater Paris University hospital. The data included patient demographic characteristics, vital signs, laboratory test and RT-PCR test results, medication administration data, medication lists during current and past hospitalizations in AP-HP hospitals, current diagnoses, discharge disposition, and death certificates.
We obtained the following data for each patient at the time of the hospitalization: sex; age, which was categorized into 4 classes based on the OpenSAFELY study results (i.e. 18-50, 51-70, 71-80, 81+); hospital, which was categorized into 4 classes following the administrative clustering of AP-HP hospitals in Paris and its suburbs based on their geographical location (i.e., AP-HP Centre - Paris University, Henri Mondor University Hospitals and at home hospitalization; AP-HP Nord and Hôpitaux Universitaires Paris Seine-Saint-Denis; AP-HP Paris Saclay University; and AP-HP Sorbonne University); obesity, which was defined as having a body mass index higher than 30 kg/m^2 or an International Statistical Classification of Diseases and Related Health Problems (ICD-10) diagnosis code for obesity (E66.0, E66.1, E66.2, E66.8, E66.9); self-reported current smoking status; and any medication prescribed according to compassionate use or as part of a clinical trial (e.g. hydroxychloroquine, azithromycin, remdesivir, tocilizumab, sarilumab, or dexamethasone). To take into account possible confounding by indication bias for FIASMA medication, we recorded whether patients had any current diagnosis, based on ICD-10 diagnosis codes, for neoplasms and diseases of the blood (C00-D89); mental disorders (F01-F99); diseases of the nervous system (G00-G99); cardiovascular disorders (I00-I99); respiratory disorders (J00-J99); digestive disorders (K00-K95); dermatological disorders (L00-L99); diseases of the musculoskeletal system (M00-M99); diseases of the genitourinary system (N00-N99); endocrine disorders (E00-E89); and eye-ear-nose-throat disorders (H00-H95).
All medical notes and prescriptions are computerized in Greater Paris University hospitals. Medications including their dosage, frequency, date, and mode of administration were identified from medication administration data or scanned handwritten medical prescriptions, through two deep learning models based on BERT contextual embeddings, one for the medications and another for their mode of administration. The model was trained on the APmed corpus, a previously annotated dataset for this task. Extracted medications names were then normalized to the Anatomical Therapeutic Chemical (ATC) terminology using approximate string matching.
FIASMA medication use was defined as receiving at least one FIASMA medication at study baseline, i.e. within the first 24 hours of hospital admission, and before the end of the index hospitalization, intubation or death.

SARS-CoV-2 [6] = conditions: in vitro; cited from earlier work
severe COVID-19 [7] = assay: Example 1: multicenter observational retrospective cohort study, FIASMA psychotropic medication use at baseline and intubation or death in patients with mental disorder; assay type: in vivo, human; conditions: patients with mental disorder hospitalized for severe COVID-19; vs not exposed
Source text: We conducted a multicenter observational retrospective cohort study at 36 AP-HP hospitals from the beginning of the epidemic in France, i.e. January 24th, until May 1st. We included all adults aged 18 years or over with a mental disorder who have been hospitalized in these medical centers for severe COVID-19. Mental disorder was defined as having at least one current International Statistical Classification of Diseases and Related Health Problems (ICD-10) diagnosis of mental disorder (F01-F99) during the visit or an ongoing prescription of any antidepressant, antipsychotic, or mood stabilizer (i.e. lithium or antiepileptic medications with mood stabilizing effects) for a psychiatric disorder at hospital admission. COVID-19 was ascertained by a positive reverse-transcriptase-polymerase-chain-reaction (RT-PCR) test from analysis of nasopharyngeal or oropharyngeal swab specimens. […]
We calculated frequencies of baseline characteristics described above in patients receiving or not receiving a FIASMA psychotropic medication and compared them using standardized mean differences (SMD). […]

SARS-CoV-2 [8] = conditions: cited from earlier work; remark: listed apart in the source
α1-adrenergic receptor = conditions: cited from earlier work
dopamine D2 receptor = dopamine D2 receptor (Homo sapiens, UniProt P14416); conditions: cited from earlier work
COVID-19 [9] = assay: Example 3: multicenter observational retrospective study, hydroxyzine use and death in patients admitted to hospital with COVID-19; assay type: in vivo, human
[10] = molecular target: serotonin 5-HT2A-receptor (Homo sapiens, UniProt P28223); conditions: cited from earlier work
COVID-19 [11] = conditions: randomized double-blind controlled study; cited from earlier work

Sequence of dopamine D2 receptor (P14416 whole entry, species assumed): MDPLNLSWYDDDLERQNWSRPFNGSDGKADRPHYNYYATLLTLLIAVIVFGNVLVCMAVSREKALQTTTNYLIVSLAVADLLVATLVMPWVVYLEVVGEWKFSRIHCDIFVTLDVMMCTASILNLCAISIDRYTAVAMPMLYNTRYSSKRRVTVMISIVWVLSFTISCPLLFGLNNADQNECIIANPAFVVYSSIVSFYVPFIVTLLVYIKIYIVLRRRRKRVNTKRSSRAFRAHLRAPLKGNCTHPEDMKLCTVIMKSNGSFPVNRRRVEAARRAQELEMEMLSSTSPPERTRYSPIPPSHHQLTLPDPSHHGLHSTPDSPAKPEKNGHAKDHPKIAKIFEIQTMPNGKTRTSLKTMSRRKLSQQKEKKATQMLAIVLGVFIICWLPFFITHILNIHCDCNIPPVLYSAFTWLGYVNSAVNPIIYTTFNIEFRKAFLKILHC
Sequence of serotonin 5-HT2A-receptor (P28223 whole entry): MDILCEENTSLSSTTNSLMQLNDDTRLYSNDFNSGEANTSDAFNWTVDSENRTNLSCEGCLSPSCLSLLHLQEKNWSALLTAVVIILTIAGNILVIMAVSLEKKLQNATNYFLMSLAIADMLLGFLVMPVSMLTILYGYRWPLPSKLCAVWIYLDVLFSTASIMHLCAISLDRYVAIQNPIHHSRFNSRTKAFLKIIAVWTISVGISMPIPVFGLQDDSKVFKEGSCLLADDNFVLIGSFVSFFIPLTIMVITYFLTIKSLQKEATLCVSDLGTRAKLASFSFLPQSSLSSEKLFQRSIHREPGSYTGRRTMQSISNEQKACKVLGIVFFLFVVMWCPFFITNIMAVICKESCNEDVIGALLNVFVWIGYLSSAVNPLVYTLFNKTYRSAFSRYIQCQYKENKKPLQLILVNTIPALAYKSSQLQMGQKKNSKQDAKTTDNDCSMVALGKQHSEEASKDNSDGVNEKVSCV

For CN(C)CCC=C1c2ccccc2CCc2ccccc21 [Amitriptyline, amitriptyline], the “Infection of Vero cells with SARS-CoV-2 (in words)” value (shortened to “Infection of Vero cells”) (SARS-CoV-2 [1]) is listed as “prevented Vero cells from being infected with SARS-CoV-2”, the “In vitro inhibition of acid sphingomyelinase (in words)” value (shortened to “In vitro inhibition”) [2] is listed as “inhibited ASM; also recorded: in vitro inhibit acid sphingomyelinase with varying degrees” and the “Infection of freshly isolated nasal epithelial cells with SARS-CoV-2 (in words)” value (SARS-CoV-2 [3]) is listed as “efficiently blocked infection of freshly isolated nasal epithelial cells with SARS-CoV-2”. For the same molecule, the “Formation of ceramide-enriched membrane domains (in words)” value (“Formation” below) [4] was “inhibited ASM and the formation of ceramide-enriched membrane domains”.

For CN(C)CCC[C@@]1(c2ccc(F)cc2)OCc2cc(C#N)ccc21 [Escitalopram, escitalopram], the “Infection of Vero cells” value (SARS-CoV-2 [1]) is listed as “prevented Vero cells from being infected with SARS-CoV-2”, the “In vitro inhibition” value [2] is listed as “inhibited ASM; also recorded: in vitro inhibit acid sphingomyelinase with varying degrees” and the “Association of use at baseline with risk of intubation or death (in words)” value (shortened to “Association of use at baseline”) (severe COVID-19 [5]) is listed as “reached statistical significance across all main and sensitivity analyses”. For the same molecule, the “Inhibition of viral replication (in words)” value (SARS-CoV-2 [6]) was “inhibition of viral replication was not observed”, the “Formation” value [4] was “inhibited ASM and the formation of ceramide-enriched membrane domains” and the “Association of use at baseline” value (severe COVID-19 [7]) was “reached statistical significance across all main and sensitivity analyses”.

For CNCCC(Oc1ccc(C(F)(F)F)cc1)c1ccccc1 (stereo not drawn) [Fluoxetine, fluoxetine], the “Infection of Vero cells” value (SARS-CoV-2 [1]) is listed as “prevented Vero cells from being infected with SARS-CoV-2”, the “In vitro inhibition” value [2] is listed as “inhibited ASM; also recorded: in vitro inhibit acid sphingomyelinase with varying degrees” and the “Inhibition of viral replication (in words)” value (SARS-CoV-2 [6]) is listed as “inhibition of viral replication”. The “Formation” value [4] was “inhibited ASM and the formation of ceramide-enriched membrane domains” and the “Infection of cultured epithelial cells with SARS-CoV-2 (in words)” value (SARS-CoV-2 [8]) was “inhibition of the infection of cultured epithelial cells with SARS-CoV-2”.

For OCCOCCN1CCN(C(c2ccccc2)c2ccc(Cl)cc2)CC1 (stereo not drawn) [Hydroxyzine, 2-[2-[4-[(4-chlorophenyl)-phenylmethyl]piperazin-1-yl]ethoxy]ethanol], the “Association of use at baseline” value (severe COVID-19 [5]) is listed as “reached statistical significance across all main and sensitivity analyses”, the “Antagonist action at the α1-adrenergic receptor (in words)” value (α1-adrenergic receptor) is listed as “weakly acts as an antagonist” and the “Antagonist action at the dopamine D2 receptor (in words)” value (dopamine D2 receptor) is listed as “weakly acts as an antagonist”. For the same molecule, the “Association of cumulative dose with risk of death (in words)” value (COVID-19 [9]; higher rather than lower cumulative doses) was “significantly associated with lower risk of death; also recorded: significantly stronger at higher rather than lower cumulative doses”, the “Association of use with risk of death (in words)” value (COVID-19 [9]; hospitalized adult patients with COVID-19) was “significantly and substantially associated with reduced risk of death; also recorded: significantly associated with reduced mortality in patients hospitalized for COVID-19; also recorded: significantly and substantially associated with lower risk of death” and the “Association of use at baseline” value (severe COVID-19 [7]) was “reached statistical significance across all main and sensitivity analyses”. For the same molecule, the “Antagonist action at the serotonin 5-HT2A-receptor (in words)” value [10] was “weakly acts as an antagonist”.

In the case of COCCCC/C(=N\OCCN)c1ccc(C(F)(F)F)cc1 [fluvoxamine], the “In vitro inhibition” value [2] is given as “in vitro inhibit acid sphingomyelinase with varying degrees” and the “Effect on COVID-19 disease progression (in words)” value (COVID-19 [11]) is given as “significant protective effects on COVID-19 disease progression”.
